Values joined by “and” are separate entries in the source; they are usually repeats but may differ in a detail not shown here. Equal values may be shown once.

Data on one molecule can be found in patent US20240147994A1, “ENHANCED YEASTICIDAL EFFICACY OF LACTIC ACID BASED ANTIMICROBIAL HANDWASH” (ECOLAB USA INC., priority 2022, published 2024).

The assay concerns Modified Vaccinia Virus, strain Ankara (MVA). The class given is cell-based. Particulars: reference inactivation (LVP-Method).

For the molecule `C=O` [0.7% (w/v) formaldehyde solution, formaldehyde], the “Reduction factor [lg] ± 95.0% confidence interval, 5 min” value is 1.70 lg and 1.87 lg and 1.53 lg; the “Reduction factor [lg] ± 95.0% confidence interval, 15 min” value was 3.14 lg and 2.96 lg and 2.73 lg; the “lg-TCID50/ml after 5 min” value is 4.93 lg-TCID50/ml and 4.88 lg-TCID50/ml and 4.85 lg-TCID50/ml; the “lg-TCID50/ml after 15 min” value was 3.49 lg-TCID50/ml and 3.79 lg-TCID50/ml and 3.65 lg-TCID50/ml.
